Assay results from patent publication US12180214B2, “Crystalline forms of (s)-4-amino-6-((1-(3-chloro-6-phenylimidazo[1,2-b]pyridazine-7-yl)ethyl)amino)pyrimidine-5-carbonitrile as inhibitors of phosphatidylinositol-3-kinase” (HUTCHISON MEDIPHARMA LIMITED, priority 2018, dated 2024).
Converted amounts (≈) assume the structure as drawn.

Experiments:
Type in all cases: physicochemical
[1] = Stability of Form I, Form IV, and Form V under high temperature, high humidity and illumination conditions; settings: for Stability (chemical purity and crystalline form), conclusion: high temperature, high humidity, and illumination conditions for 10 days
Description: Determination method: the test samples of Form I, Form IV, and Form V of compound of Formula A were placed on the culture dishes respectively, which were uncovered and placed in sealed clean containers. The containers were placed under the conditions of a temperature of 60° C., a temperature of 25° C. and a relative humidity of 92.5%±5%, and an illumination of 4500 lx±500 lx respectively for 10 days. Then sampled, investigated for the purity and crystalline form of the samples, and compared the investigation results.

[2] = Solubility of Form I, Form IV, and Form V in buffers of different pH; settings: for Solubility in the test buffers, conclusion: buffers pH 1.2-6.8, 37° C.; for solubility at 0.5 hour / solubility at 2 hours: buffer, 37 °C, thermodynamic from solid
Description: Determination method: excess amount of samples of Form I, Form IV, and Form V of compound of Formula A were suspended in the buffers of different pH respectively. The system was saturated by shaking for a period of time at 37° C. in a water bath of constant temperature. Then the system was filtered, and the filtrate was used for determining solubility of the samples. The buffers of different pH were prepared according to the US pharmacopeia (USP40-NF35).

[3] = Hygroscopicity by dynamic vapor sorption (DVS); settings: relative humidity of 0-95% at 25° C.
Description: Determination method: the test samples of Form I, Form IV, and Form V of compound of Formula A were placed in the sample dishes of the dynamic vapor sorption instrument (DVS-INTRINSIC) respectively. Then the weight gains by moisture absorption of the samples were measured at a relative humidity of 0-95% at 25° C. The results were shown in FIG. 16, FIG. 17, and FIG. 18.

[4] = Stability of Form IV mixed with excipients (starch, microcrystalline cellulose); settings: high temperature, high humidity, and illumination conditions, 30 days
Description: Determination method: 50 mg of samples of Form IV of compound of Formula A were mixed with 200 mg of excipients starch and microcrystalline cellulose respectively. The mixtures were used as Lest samples and placed on the culture dishes respectively, which were uncovered and placed in sealed clean containers. Then the containers were placed under the conditions of a temperature of 60° C., a temperature of 25° C. and a relative humidity of 92.5%±5%, and an illumination of 4500 lx±500 lx respectively for 30 days. Then sampled, investigated for the change of crystalline form of the samples, and compared the investigation results.

[5] = High humidity (92.5% RH), 25° C., 5 days
[6] = High humidity (92.5% RH), 25° C., 10 days
[7] = High temperature (60° C.), 5 days
[8] = High temperature (60° C.), 10 days
[9] = Illumination (4500 Lx), 10 days

Chemical purity (%) ([1]; 0 day)	Chemical purity (%) [1, 5]	Chemical purity (%) [1, 6]	Chemical purity (%) [1, 7]	Chemical purity (%) [1, 8]	Chemical purity (%) ([1]; Illumination (4500 Lx), 5 days)	Chemical purity (%) [1, 9]	Stability (chemical purity and crystalline form), conclusion [1]	Solubility in the test buffers, conclusion [2]	Hygroscopicity (weight gain by moisture absorption) [3]	SMILES	further results
99.70%	99.88%	99.87%	99.88%	99.87%	99.85%	99.81%	stable	good solubility	non-hygroscopic	C[C@H](Nc1ncnc(N)c1C#N)c1cc2ncc(Cl)n2nc1-c1ccccc1 [Form V, (S)-4-amino-6-((1-(3-chloro-6-phenylimidazo[1,2-b]pyridazin-7-yl)ethyl)amino)pyrimidine-5-carbonitrile]	Solubility ([2]; buffer pH 1.2, shaken at 37° C. water bath for 2 hours): 9640 µg/mL (≈ 24700 µM); Solubility ([2]; buffer pH 2.1, shaken at 37° C. water bath for 2 hours): 580 µg/mL (≈ 1480 µM); Solubility ([2]; buffer pH 4.5, shaken at 37° C. water bath for 2 hours): 20 µg/mL (≈ 51.2 µM); Solubility ([2]; buffer pH 6.8, shaken at 37° C. water bath for 2 hours): 20 µg/mL (≈ 51.2 µM)
99.76%	99.65%	99.60%	99.63%	99.63%	99.61%	99.45%	stable	good solubility	non-hygroscopic	C[C@H](Nc1ncnc(N)c1C#N)c1cc2ncc(Cl)n2nc1-c1ccccc1 [Form I, (S)-4-amino-6-((1-(3-chloro-6-phenylimidazo[1,2-b]pyridazin-7-yl)ethyl)amino)pyrimidine-5-carbonitrile]	solubility at 0.5 hour ([2]; pH 1.2, simulated gastric fluid, buffer pH 1.2, shaken at 37° C. water bath for 0.5 hour): 10800 µg/mL (≈ 27600 µM); solubility at 0.5 hour ([2]; pH 2.1, aqueous buffer, buffer pH 2.1, shaken at 37° C. water bath for 0.5 hour): 800 µg/mL (≈ 2050 µM); solubility at 0.5 hour ([2]; pH 4.5, aqueous buffer, buffer pH 4.5, shaken at 37° C. water bath for 0.5 hour): 40 µg/mL (≈ 102 µM); solubility at 0.5 hour ([2]; pH 6.8, aqueous buffer, buffer pH 6.8, shaken at 37° C. water bath for 0.5 hour): 30 µg/mL (≈ 76.8 µM)
99.27%	99.68%	99.68%	99.57%	99.68%	99.59%	99.55%	stable	good solubility	non-hygroscopic	C[C@H](Nc1ncnc(N)c1C#N)c1cc2ncc(Cl)n2nc1-c1ccccc1 [Form IV, (S)-4-amino-6-((1-(3-chloro-6-phenylimidazo[1,2-b]pyridazin-7-yl)ethyl)amino)pyrimidine-5-carbonitrile]	Stability mixed with excipients, conclusion [4]: stable; solubility at 2 hours ([2]; pH 1.2, simulated gastric fluid, buffer pH 1.2, shaken at 37° C. water bath for 2 hours): 8560 µg/mL (≈ 21900 µM); solubility at 2 hours ([2]; pH 2.1, aqueous buffer, buffer pH 2.1, shaken at 37° C. water bath for 2 hours): 500 µg/mL (≈ 1280 µM); solubility at 2 hours ([2]; pH 4.5, aqueous buffer, buffer pH 4.5, shaken at 37° C. water bath for 2 hours): 20 µg/mL (≈ 51.2 µM); solubility at 2 hours ([2]; pH 6.8, aqueous buffer, buffer pH 6.8, shaken at 37° C. water bath for 2 hours): 20 µg/mL (≈ 51.2 µM)
